From patent publication US7179807B2, “5-substituted-2-arylpyrazines” (Neurogen Corporation, priority 2002, dated 2007)

These compounds were tested against T1, CRF1 receptor (Homo sapiens, UniProt P34998) (assay: standard in vitro CRF receptor binding assay (125I-CRF, IMR-32 cell membranes)). Details: Table I; asterisk = tested in the Example 30 assay, membranes of BrdU-induced IMR-32 cells, 125I-CRF 100 pM; read-out: Ki < 1 μM.
T1 construct: To induce CRF1 receptor expression, the cells are grown to approximately 80% confluence; endogenous in cells; host or cells: IMR-32 human neuroblastoma cells, BrdU-induced, as membrane homogenates
T1 sequence (P34998 24-415): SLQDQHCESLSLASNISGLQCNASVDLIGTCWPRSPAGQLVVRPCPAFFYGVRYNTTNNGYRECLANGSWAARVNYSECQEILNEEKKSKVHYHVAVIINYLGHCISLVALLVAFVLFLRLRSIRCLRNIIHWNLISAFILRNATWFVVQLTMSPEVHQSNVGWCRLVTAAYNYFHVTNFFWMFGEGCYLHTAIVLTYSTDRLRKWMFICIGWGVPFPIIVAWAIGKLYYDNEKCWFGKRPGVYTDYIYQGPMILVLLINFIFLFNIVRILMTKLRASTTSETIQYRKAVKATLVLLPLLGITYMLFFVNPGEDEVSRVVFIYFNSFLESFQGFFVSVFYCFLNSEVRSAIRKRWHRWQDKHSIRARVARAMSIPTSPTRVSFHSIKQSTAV
Method: As discussed above, the following assay is defined herein as a standard in vitro CRF receptor binding assay. The pharmaceutical utility of compounds of this invention is indicated by the following assay for CRF1 receptor activity.
The CRF receptor binding is performed using a modified version of the assay described by Grigoriadis and De Souza (Methods in Neurosciences, Vol. 5, 1991). IMR-32 human neuroblastoma cells, a cell line that can be induced to express the CRF1 receptor, are cultured in growth medium consisting of EMEM w/Earle's BSS (JRH Biosciences, Cat# 51411) supplemented with 10% Fetal Bovine Serum, 25 mM HEPES (pH 7.2), 1 mM Sodium Pyruvate, and Non-Essential Amino Acids (JRH Biosciences, Cat# 58572). Stock cultures of cells are grown to confluence and subcultured twice per week at split ratios of 1:2 to 1:4 (cells are dislodged during subculturing using No-Zyme, JRH Biosciences, Cat# 59226). To induce CRF1 receptor expression, the cells are grown to approximately 80% confluence and then changed to growth media containing 2.5 μM 5-bromo-2′deoxyuridine (BrdU, Sigma, Cat# B9285). Growth media containing BrdU is replaced every 3–4 days and the cells are harvested via centrifugation (using No-Zyme) after 10 days of BrdU treatment. Harvested cells are stored frozen at −80° C. until needed for the preparation of membrane homogenates.
To prepare receptor-containing membranes cells are homogenized in wash buffer (50 mM Tris HCl, 10 mM MgCl2, 2 mM EGTA, pH 7.4) and centrifuged at 48,000×g for 10 minutes at 4° C. The pellet is re-suspended in wash buffer and the homogenization and centrifugation steps are performed once more.
Membrane pellets (containing CRF receptors) are resuspended and brought to a final concentration of 1.0 mg membrane protein/ml in binding buffer (Tris buffer above with 0.1% BSA and 0.1 mM bacitracin). For the binding assay, 150 microliters of the membrane preparation is added to 96 well microtube plates containing 50 microliters of ^125I-CRF (SA 2200 Ci/mmol, final concentration of 100 pM) and 2 microliters of test compound. Binding is carried out at room temperature for 2 hours. Plates are then harvested using 50 mM Tris buffer pH 7.4, on a BRANDEL 96 well cell harvester and filters (soaked in 1% PEI for 1.5 hours) are counted for gamma emissions on a Wallac 1205 BETAPLATE liquid scintillation counter. Non-specific binding is defined by 2 micromolar cold CRF. Ki values are calculated with the non-linear curve fitting program RS/1 (BBN Software Products Corp., Cambridge, Mass.).

Ki, < 1 µM:
CCc1cc(-c2nc(NC)c(OC(CC)CC)nc2CC)c(C)nc1N(C)C [Compound 16, [6-(6-Dimethylamino-5-ethyl-2-methyl-pyridin-3-yl)-5-ethyl-3-(1-ethyl-propoxy)-pyrazin-2-yl]-methyl-amine]
CCc1nc(OC(CC)CC)c(NC)nc1-c1ccc(C(C)C)nc1N1CCC1 [Compound 13, [6-(2-Azetidin-1-yl-6-isopropyl-pyridin-3-yl)-5-ethyl-3-(1-ethyl-propoxy)-pyrazin-2-yl]-methyl-amine]
[5-Ethyl-6-(2-ethyl-6-isopropoxy-2-pyridin-3-yl)-3-(1-ethyl-propoxy)-pyrazin-2-yl]-methyl-amine [Compound 6]
CCC(CC)Nc1nc(C)c(-c2nc(OC)c(NC(CC)CC)nc2C)nc1OC [Compound 2, N-5,N-5′-Bis-(1-ethyl-propyl)-6,6′-dimethoxy-3,3′-dimethyl-[2,2′]bipyrazinyl-5,5′-diamine]
[5-Ethyl-6-(2-ethoxy-6-isopropoxy-2-pyridin-3-yl)-3-(1-ethyl-propoxy)-pyrazin-2-yl]-methyl-amine [Compound 7]
CCc1cc(-c2nc(NC)c(OC(CC)CC)nc2C)c(C)nc1OC [Compound 3, [5-Methyl-6-(5-ethyl-6-methoxy-2-methyl-pyridin-3-yl)-3-(1-ethyl-propoxy)-pyrazin-2-yl]-methyl-amine]
CCc1cc(-c2nc(NC)c(OC(CC)CC)nc2CC)c(C)nc1OC [Compound 4, [5-Ethyl-6-(5-ethyl-6-methoxy-2-methyl-pyridin-3-yl)-3-(1-ethyl-propoxy)-pyrazin-2-yl]-methyl-amine]
CCC(CC)Oc1nc(C)c(-c2cc(C)c(NC(C)C)nc2C)nc1NC [Compound 17, [3-(1-Ethyl-propoxy)-6-(6-isopropyl-amino-2,5-dimethyl-pyridin-3-yl)-5-methyl-pyrazin-2-yl]-methyl-amine]
CCC(CC)Oc1nc(Br)c(-c2cc(Br)c(NC(C)C)nc2C)nc1NC [Compound 15, [3-(1-Ethyl-propoxy)-6-(6-isopropyl-amino-2-methyl-5-bromo-pyridin-3-yl)-5-bromo-pyrazin-2-yl]-methyl-amine]
CCc1nc(OC(CC)CC)c(NC)nc1-c1ccc(C(C)C)nc1N(C)C [Compound 11, [5-Ethyl-6-(2-dimethylamino-6-isopropyl-2-pyridin-3-yl)-3-(1-ethyl-propoxy)-pyrazin-2-yl]-methyl-amine]
CCc1nc(OC(CC)CC)c(NC)nc1-c1ccc(C(C)C)nc1O [Compound 9, [5-Ethyl-6-(2-hydroxy-6-isopropyl-2-pyridin-3-yl)-3-(1-ethyl-propoxy)-pyrazin-2-yl]-methyl-amine]
CCc1cc(-c2nc(OC)c(NC(CC)CC)nc2C)c(C)nc1OC [Compound 1, [5-(5-Ethyl-6-methoxy-2-methyl-pyridin-3-yl)-3-methoxy-6-methyl-pyrazin-2-yl]-(1-ethyl-propyl)-amine]
CCc1nc(OC(CC)CC)c(NC)nc1-c1ccc(N(C)C)nc1C [Compound 10, [5-Ethyl-6-(2-methyl-6-dimethylamino-2-pyridin-3-yl)-3-(1-ethyl-propoxy)-pyrazin-2-yl]-methyl-amine]
CCc1nc(OC(CC)CC)c(NC)nc1-c1ccc(C(C)C)nc1C [Compound 8, [5-Ethyl-6-(2-methyl-6-isopropyl-2-pyridin-3-yl)-3-(1-ethyl-propoxy)-pyrazin-2-yl]-methyl-amine]
CCc1nc(OC(CC)CC)c(NC)nc1-c1c(C)noc1C [Compound 5, [6-(3,5-Dimethyl-isoxazol-4-yl)-5-ethyl-3-(1-ethyl-propoxy)-pyrazin-2-yl]-methyl-amine]
CCc1nc(OC(CC)CC)c(NC)nc1-c1ccc(C(C)C)nc1N(CC)CC [Compound 14, [6-(2-Diethylamino-6-isopropyl-pyridin-3-yl)-5-ethyl-3-(1-ethyl-propoxy)-pyrazin-2-yl]-methyl-amine]
